# Assay results from ChEMBL document CHEMBL1152345, “Clavatadines C-E, guanidine alkaloids from the Australian sponge Suberea clavata” (J Nat Prod, 2009).
# Legend:
# [1] = target: Coagulation factor XI (Homo sapiens) (UniProt P03951); experiment: Inhibition of factor 11a at 222 uM after 10 min
# [2] = target: Coagulation factor IX (Homo sapiens) (UniProt P00740); experiment: Inhibition of factor 9a at 222 uM after 10 min
# Coagulation factor IX (Homo sapiens), sequence (P00740 47-191 limits assumed): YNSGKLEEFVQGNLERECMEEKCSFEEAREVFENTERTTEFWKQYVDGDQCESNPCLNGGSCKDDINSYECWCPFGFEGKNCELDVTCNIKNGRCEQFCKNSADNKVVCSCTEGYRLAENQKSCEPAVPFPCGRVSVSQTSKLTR
# Coagulation factor IX (Homo sapiens), sequence (P00740 227-461 limits assumed): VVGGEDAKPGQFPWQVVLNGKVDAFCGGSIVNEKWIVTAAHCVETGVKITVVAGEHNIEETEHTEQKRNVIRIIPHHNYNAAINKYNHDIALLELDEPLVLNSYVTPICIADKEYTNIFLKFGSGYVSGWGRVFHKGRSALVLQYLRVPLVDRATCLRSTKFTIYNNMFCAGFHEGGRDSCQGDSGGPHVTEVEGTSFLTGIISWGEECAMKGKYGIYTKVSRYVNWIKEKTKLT
# Coagulation factor XI (Homo sapiens), sequence (P03951 19-387 limits assumed): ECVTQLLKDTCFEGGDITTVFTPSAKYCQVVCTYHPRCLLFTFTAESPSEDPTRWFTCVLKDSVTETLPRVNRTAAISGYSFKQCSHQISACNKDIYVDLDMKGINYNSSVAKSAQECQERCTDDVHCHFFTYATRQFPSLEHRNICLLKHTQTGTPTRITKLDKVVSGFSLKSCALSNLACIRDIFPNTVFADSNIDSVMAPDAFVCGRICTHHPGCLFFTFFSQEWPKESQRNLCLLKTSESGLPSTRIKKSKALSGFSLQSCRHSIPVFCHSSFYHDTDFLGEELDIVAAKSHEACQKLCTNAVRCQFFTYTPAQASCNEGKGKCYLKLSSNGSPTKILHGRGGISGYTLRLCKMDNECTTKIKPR
# Coagulation factor XI (Homo sapiens), sequence (P03951 388-625 limits assumed): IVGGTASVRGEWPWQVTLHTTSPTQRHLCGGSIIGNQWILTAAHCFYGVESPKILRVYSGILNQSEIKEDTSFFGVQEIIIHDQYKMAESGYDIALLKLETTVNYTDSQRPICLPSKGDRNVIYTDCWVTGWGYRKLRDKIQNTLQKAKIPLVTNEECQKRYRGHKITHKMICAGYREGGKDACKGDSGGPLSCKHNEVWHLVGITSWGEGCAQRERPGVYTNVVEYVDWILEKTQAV
SMILES,inhibition [1],inhibition [2]
N=C(N)NCCCCNC(=O)/C(Cc1ccc(O)c(Br)c1)=N/O,37%,< 5%
N=C(N)NCCCCNC(=O)C1=NOC2(C=C(Br)C(=O)C(Br)=C2)C1,17%,< 5%
N=C(N)NCCCCCNC(=O)C1=NOC2(C=C(Br)C(=O)C(Br)=C2)C1,30%,< 5%

# Other lines, results leading:
inhibition [1],inhibition [2],SMILES
59%,< 5%,COC1=C(Br)[C@@H](O)[C@]2(C=C1Br)CC(C(=O)NCCc1cnc[nH]1)=NO2
12%,< 5%,COC1=C(Br)[C@H](O)[C@@]2(C=C1Br)CC(C(=O)NCCCCNC(=N)N)=NO2
30%,< 5%,COC1=C(Br)[C@H](O)[C@@]2(C=C1Br)CC(C(=O)NCCCCCNC(=N)N)=NO2
